{
  "source": "PubChem BioAssay AID2060885",
  "about": "(Molecular Pharmacology Branch, DTP, NCI, 2025)",
  "tested_on": "NCI-H23 complex spheroids with HUVEC/MSC, viability",
  "assay": "Anticancer human tumor NCI-H23 cell line growth inhibition [RAS];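 also: spheroids exposed to compound for 7 days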;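 as to viability, T/C: 100% = DMSO vehicle control viability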",
  "conditions": "for pIC50: curve of first compound; for viability, T/C: stronger effect = lower value",
  "summary_of_the_method": "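Agents were tested in combination matrices in half-log decrements from a top concentration at or near clinical Cmax (10 microM if undetermined). Targets were multi-cell spheroids of tumour lines plus HUVEC and MSC stromal cells.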",
  "key": {"[1]": {"conditions": "second compound 0.000949 µM, first compound 0.00316 µM"}, "[2]": {"conditions": "second compound 0.000949 µM, first compound 0.01 µM"}, "[3]": {"conditions": "second compound 0.000949 µM, first compound 0.0316 µM"}, "[4]": {"conditions": "second compound 0.000949 µM, first compound 0.1 µM"}, "[5]": {"conditions": "second compound 0.000949 µM, first compound 0.316 µM"}, "[6]": {"conditions": "second compound 0.000949 µM, first compound 1 µM"}, "[7]": {"conditions": "second compound 0.003 µM, first compound 0.00316 µM"}, "[8]": {"conditions": "second compound 0.003 µM, first compound 0.01 µM"}, "[9]": {"conditions": "second compound 0.003 µM, first compound 0.0316 µM"}, "[10]": {"conditions": "second compound 0.003 µM, first compound 0.1 µM"}, "[11]": {"conditions": "second compound 0.003 µM, first compound 0.316 µM"}, "[12]": {"conditions": "second compound 0.003 µM, first compound 1 µM"}, "[13]": {"conditions": "second compound 0.00949 µM, first compound 0.00316 µM"}, "[14]": {"conditions": "second compound 0.00949 µM, first compound 0.01 µM"}, "[15]": {"conditions": "second compound 0.00949 µM, first compound 0.0316 µM"}, "[16]": {"conditions": "second compound 0.00949 µM, first compound 0.1 µM"}, "[17]": {"conditions": "second compound 0.00949 µM, first compound 0.316 µM"}, "[18]": {"conditions": "second compound 0.00949 µM, first compound 1 µM"}, "[19]": {"conditions": "second compound 0.03 µM, first compound 0.00316 µM"}, "[20]": {"conditions": "second compound 0.03 µM, first compound 0.01 µM"}, "[21]": {"conditions": "second compound 0.03 µM, first compound 0.0316 µM"}, "[22]": {"conditions": "second compound 0.03 µM, first compound 0.1 µM"}, "[23]": {"conditions": "second compound 0.03 µM, first compound 0.316 µM"}, "[24]": {"conditions": "second compound 0.03 µM, first compound 1 µM"}, "[25]": {"conditions": "second compound 0.0949 µM, first compound 0.00316 µM"}, "[26]": {"conditions": "second compound 0.0949 µM, first compound 0.01 µM"}, "[27]": {"conditions": "second compound 0.0949 µM, first compound 0.0316 µM"}, "[28]": {"conditions": "second compound 0.0949 µM, first compound 0.1 µM"}, "[29]": {"conditions": "second compound 0.0949 µM, first compound 0.316 µM"}, "[30]": {"conditions": "second compound 0.0949 µM, first compound 1 µM"}, "[31]": {"conditions": "second compound 0.3 µM, first compound 0.00316 µM"}, "[32]": {"conditions": "second compound 0.3 µM, first compound 0.01 µM"}, "[33]": {"conditions": "second compound 0.3 µM, first compound 0.0316 µM"}, "[34]": {"conditions": "second compound 0.3 µM, first compound 0.1 µM"}, "[35]": {"conditions": "second compound 0.3 µM, first compound 0.316 µM"}, "[36]": {"conditions": "second compound 0.3 µM, first compound 1 µM"}},
  "note": "pIC50: −log10 of the molar value.",
  "data": [
    {"smiles": "C=CC(=O)N1CCN(c2nc(OCC3CCCN3C)nc3c(F)c(-c4nc(N)cc(C)c4C(F)(F)F)c(Cl)cc23)C(C)C1", "note": "(centres undefined) + CCn1c(-c2cccnc2C(C)OC)c2c3cc(ccc31)N1CCOC(CC(NC(=O)C(C(C)C)N(C)C(=O)C3(F)CCN(C(=O)C#CC(C)(C)N(C)C)CC3)C(=O)N3CCCC(N3)C(=O)OCC(C)(C)C2)C1", "values": [
      {"measurement": "pIC50", "setting": "second compound 0.000949 µM", "value": "> 8.50"},
      {"measurement": "pIC50", "setting": "second compound 0.003 µM", "value": "> 8.50"},
      {"measurement": "pIC50", "setting": "second compound 0.00949 µM", "value": "> 8.50"},
      {"measurement": "pIC50", "setting": "second compound 0.03 µM", "value": "> 8.50"},
      {"measurement": "pIC50", "setting": "second compound 0.0949 µM", "value": "> 8.50"},
      {"measurement": "pIC50", "setting": "second compound 0.3 µM", "value": "> 8.50"},
      {"measurement": "viability, T/C", "setting": "[1]", "value": 34.7, "unit": "%"},
      {"measurement": "viability, T/C", "setting": "[2]", "value": 35.5, "unit": "%"},
      {"measurement": "viability, T/C", "setting": "[3]", "value": 24.3, "unit": "%"},
      {"measurement": "viability, T/C", "setting": "[4]", "value": 28.4, "unit": "%"},
      {"measurement": "viability, T/C", "setting": "[5]", "value": 29.2, "unit": "%"},
      {"measurement": "viability, T/C", "setting": "[6]", "value": 25.6, "unit": "%"},
      {"measurement": "viability, T/C", "setting": "[7]", "value": 33.6, "unit": "%"},
      {"measurement": "viability, T/C", "setting": "[8]", "value": 28.5, "unit": "%"},
      {"measurement": "viability, T/C", "setting": "[9]", "value": 25.6, "unit": "%"},
      {"measurement": "viability, T/C", "setting": "[10]", "value": 29.4, "unit": "%"},
      {"measurement": "viability, T/C", "setting": "[11]", "value": 31.5, "unit": "%"},
      {"measurement": "viability, T/C", "setting": "[12]", "value": 27.6, "unit": "%"},
      {"measurement": "viability, T/C", "setting": "[13]", "value": 26.8, "unit": "%"},
      {"measurement": "viability, T/C", "setting": "[14]", "value": 26.7, "unit": "%"},
      {"measurement": "viability, T/C", "setting": "[15]", "value": 37.2, "unit": "%"},
      {"measurement": "viability, T/C", "setting": "[16]", "value": 30.9, "unit": "%"},
      {"measurement": "viability, T/C", "setting": "[17]", "value": 27.7, "unit": "%"},
      {"measurement": "viability, T/C", "setting": "[18]", "value": 25.9, "unit": "%"},
      {"measurement": "viability, T/C", "setting": "[19]", "value": 30.2, "unit": "%"},
      {"measurement": "viability, T/C", "setting": "[20]", "value": 30.5, "unit": "%"},
      {"measurement": "viability, T/C", "setting": "[21]", "value": 35, "unit": "%"},
      {"measurement": "viability, T/C", "setting": "[22]", "value": 27.2, "unit": "%"},
      {"measurement": "viability, T/C", "setting": "[23]", "value": 27.1, "unit": "%"},
      {"measurement": "viability, T/C", "setting": "[24]", "value": 29.7, "unit": "%"},
      {"measurement": "viability, T/C", "setting": "[25]", "value": 28.5, "unit": "%"},
      {"measurement": "viability, T/C", "setting": "[26]", "value": 31.4, "unit": "%"},
      {"measurement": "viability, T/C", "setting": "[27]", "value": 26.9, "unit": "%"},
      {"measurement": "viability, T/C", "setting": "[28]", "value": 27.3, "unit": "%"},
      {"measurement": "viability, T/C", "setting": "[29]", "value": 24.9, "unit": "%"},
      {"measurement": "viability, T/C", "setting": "[30]", "value": 32.7, "unit": "%"},
      {"measurement": "viability, T/C", "setting": "[31]", "value": 25.8, "unit": "%"},
      {"measurement": "viability, T/C", "setting": "[32]", "value": 30, "unit": "%"},
      {"measurement": "viability, T/C", "setting": "[33]", "value": 24.4, "unit": "%"},
      {"measurement": "viability, T/C", "setting": "[34]", "value": 26.2, "unit": "%"},
      {"measurement": "viability, T/C", "setting": "[35]", "value": 26, "unit": "%"},
      {"measurement": "viability, T/C", "setting": "[36]", "value": 29.3, "unit": "%"}
    ]},
    {"smiles": "CCN1CCN(Cc2ccc(Nc3ncc(F)c(-c4cc(F)c5nc(C)n(C(C)C)c5c4)n3)nc2)CC1", "note": "+ CCn1c(-c2cc(N3CCN(C)CC3)cnc2C(C)OC)c2c3cc(ccc31)-c1csc(n1)CC(NC(=O)C1CC1C)C(=O)N1CCCC(N1)C(=O)OCC(C)(C)C2", "values": [
      {"measurement": "pIC50", "setting": "second compound 0.000949 µM", "value": "> 8.50"},
      {"measurement": "pIC50", "setting": "second compound 0.003 µM", "value": "> 8.50"},
      {"measurement": "pIC50", "setting": "second compound 0.00949 µM", "value": "> 8.50"},
      {"measurement": "pIC50", "setting": "second compound 0.03 µM", "value": "> 8.50"},
      {"measurement": "pIC50", "setting": "second compound 0.0949 µM", "value": "> 8.50"},
      {"measurement": "pIC50", "setting": "second compound 0.3 µM", "value": "> 8.50"},
      {"measurement": "viability, T/C", "setting": "[1]", "value": 37.3, "unit": "%"},
      {"measurement": "viability, T/C", "setting": "[2]", "value": 32.9, "unit": "%"},
      {"measurement": "viability, T/C", "setting": "[3]", "value": 18.3, "unit": "%"},
      {"measurement": "viability, T/C", "setting": "[4]", "value": 20.1, "unit": "%"},
      {"measurement": "viability, T/C", "setting": "[5]", "value": 17.9, "unit": "%"},
      {"measurement": "viability, T/C", "setting": "[6]", "value": 12.9, "unit": "%"},
      {"measurement": "viability, T/C", "setting": "[7]", "value": 29.6, "unit": "%"},
      {"measurement": "viability, T/C", "setting": "[8]", "value": 22.1, "unit": "%"},
      {"measurement": "viability, T/C", "setting": "[9]", "value": 16, "unit": "%"},
      {"measurement": "viability, T/C", "setting": "[10]", "value": 16.8, "unit": "%"},
      {"measurement": "viability, T/C", "setting": "[11]", "value": 14.3, "unit": "%"},
      {"measurement": "viability, T/C", "setting": "[12]", "value": 12.3, "unit": "%"},
      {"measurement": "viability, T/C", "setting": "[13]", "value": 29, "unit": "%"},
      {"measurement": "viability, T/C", "setting": "[14]", "value": 21.5, "unit": "%"},
      {"measurement": "viability, T/C", "setting": "[15]", "value": 17.2, "unit": "%"},
      {"measurement": "viability, T/C", "setting": "[16]", "value": 16.2, "unit": "%"},
      {"measurement": "viability, T/C", "setting": "[17]", "value": 12.9, "unit": "%"},
      {"measurement": "viability, T/C", "setting": "[18]", "value": 10.4, "unit": "%"},
      {"measurement": "viability, T/C", "setting": "[19]", "value": 23.1, "unit": "%"},
      {"measurement": "viability, T/C", "setting": "[20]", "value": 17.9, "unit": "%"},
      {"measurement": "viability, T/C", "setting": "[21]", "value": 18.9, "unit": "%"},
      {"measurement": "viability, T/C", "setting": "[22]", "value": 14, "unit": "%"},
      {"measurement": "viability, T/C", "setting": "[23]", "value": 9.41, "unit": "%"},
      {"measurement": "viability, T/C", "setting": "[24]", "value": 14.5, "unit": "%"},
      {"measurement": "viability, T/C", "setting": "[25]", "value": 16.1, "unit": "%"},
      {"measurement": "viability, T/C", "setting": "[26]", "value": 16, "unit": "%"},
      {"measurement": "viability, T/C", "setting": "[27]", "value": 13.7, "unit": "%"},
      {"measurement": "viability, T/C", "setting": "[28]", "value": 10.7, "unit": "%"},
      {"measurement": "viability, T/C", "setting": "[29]", "value": 10.1, "unit": "%"},
      {"measurement": "viability, T/C", "setting": "[30]", "value": 13.1, "unit": "%"},
      {"measurement": "viability, T/C", "setting": "[31]", "value": 14.8, "unit": "%"},
      {"measurement": "viability, T/C", "setting": "[32]", "value": 16.5, "unit": "%"},
      {"measurement": "viability, T/C", "setting": "[33]", "value": 12.8, "unit": "%"},
      {"measurement": "viability, T/C", "setting": "[34]", "value": 10.4, "unit": "%"},
      {"measurement": "viability, T/C", "setting": "[35]", "value": 10.6, "unit": "%"},
      {"measurement": "viability, T/C", "setting": "[36]", "value": 12.6, "unit": "%"}
    ]}
  ]
}
